Article PMC7449161, “Nonstationary Pharmacokinetics of Caspofungin in ICU Patients” (Antimicrobial Agents and Chemotherapy, 2020)
Read-outs that look alike come from different tables or passages of the source.

Assays:
C. parapsilosis = conditions: preclinical pharmacodynamic target; cited from earlier work
C. glabrata = conditions: preclinical pharmacodynamic target; cited from earlier work
C. albicans = conditions: preclinical pharmacodynamic target; cited from earlier work
Method: The simulations of PTA were based on model parameters from bootstrap samples (n = 1,000) in order to include the parameter uncertainty. Predictions of AUC at steady state were performed for the standard 50-mg maintenance dose.

[1] = cited from earlier work; for CL: healthy subjects
[2] = cited from earlier work
Source text: There are little data concerning the influence of extracorporeal membrane oxygenation (ECMO) on caspofungin pharmacokinetics ([9], [10]). ECMO is known to alter drug pharmacokinetics due to drug extraction during the procedure and a large volume of exogenous blood needed for ECMO circuit. The changes include increased volume of distribution and decreased clearance ([11]). The interactions between the ECMO circuit and the drug are not always easily predictable, but one of the vital drug characteristics determining circuit drug loss is the lipophilicity and protein binding ([12], [13]). Since ca ... || The changes in parameters with time require further investigation as they might be caused by a process that our study was not able to capture and describe. It could be the result of temporal changes in protein binding as caspofungin is highly protein-bound (97%) ([6]). Another possibility is nonlinearity in metabolic or distribution processes.

[3] = cited from earlier work; for clearance: ICU patients
Source text: Although the CL after the first dose (0.563 liters/h, 6.7%RSE) is well within the values reported in literature, the CL after the second dose (0.737 liters/h, 6.1%RSE) is within the highest previously reported values, and the CL after the third dose (1.01 liters/h, 9.1%RSE) almost doubles compared to CL after the first dose and literature CL values.

[4] = Population pharmacokinetics of caspofungin in ICU patients (two-compartment nonlinear mixed-effects model); type: in vivo, human; conditions: for clearance: human, serum, iv; for typical AUC0–24: maintenance dose of 50 mg
Source text: This study was registered at ClinicalTrials.gov under ID NCT03399032. It was a prospective observational study conducted in adult critically ill patients admitted to ICU due to severe sepsis requiring broad-spectrum antibiotics with a high risk of fungal infection. Both medical and surgical patients with any type of infection (pulmonary, abdominal, urinary tract, etc.) were included. Eligible consent was obtained from each patient or his or her attendant. Allergy to caspofungin, lack of consent to participate in the study, and age below 18 or above 80 years were the exclusion criteria. Thirty-three patients were enrolled in the study. Data from three patients were excluded from analysis due to technical issue with handling the samples, which made them unsuitable for analysis and the concentrations could not be determined.
The antibiotic regimen included broad-spectrum antibacterial antibiotics plus caspofungin as empirical antifungal therapy (70 mg i.v. on the first day, and 50 mg i.v. on the consecutive days) once daily. In three patients with liver failure caspofungin doses were reduced (50 mg i.v. initial and 35 mg i.v. maintenance dose). Any site of infection was treated in the manner.
Blood samples (3 ml) were collected 0.5, 2, 4, 8, 12, and 24 h after each dose of caspofungin for three consecutive days from the standard arterial cannula. Thirty minutes after each sample collection, blood was centrifuged for 10 min at 3,000 rpm. Subsequently, the supernatant was collected and frozen. Serum caspofungin concentrations were measured with high-performance liquid chromatography (HPLC).
Plasma samples were prepared for analysis according to a previously described procedure ([3]). A Dionex chromatographic system (Dionex, Sunnyvale, CA), equipped with a P580 LPG LC-6A gradient pump, UVD340S UV-visible detector, and a Rheodyne 7725 loop injector with a sufficient volume of 20 μl was employed in this study. Chromatographic separation was achieved on a Zorbax SB C18 column (150 × 4.6 mm × 5 μm) in isocratic mode. The mobile phase consisted of 20 mM triethylammonium phosphate buffer (pH 3.0): acetonitrile-methanol (50:40:10 [vol/vol/vol]; Fluka, HPLC grade). The mobile phase flow rate was 1.0 ml/min, and caspofungin absorbance was measured at 210 nm. The analytical method was validated in terms of linearity, the limits of detection (LOD) and quantification (LOQ), precision, and accuracy. The standard curves were linear over a concentration range from 0.25 to 10.0 μg/ml with an R^2 of 0.987. The LOD and LOQ values for caspofungin were 0.08 and 0.18 μg/ml, respectively. The intra- and interday accuracies ranged from 98.1 to 102.8%, and the coefficients of variation (CVs) were between 0.8 and 3.4%.
Population nonlinear mixed-effects modeling was conducted using NONMEM software (v7.3; Icon Development Solutions, Ellicott City, MD), GNU Fortran 95 compiler (GCC 4.6.0), and Wings for NONMEM (WFN741, http://wfn.sourceforge.net). The first-order conditional estimation method with η-ε interaction was employed throughout the model-building procedure. R computing environment (R Core Team 2019) was used for data processing and visualization.
The minimum value of the NONMEM objective function (OFV), typical goodness-of-fit diagnostic plots, and the evaluation of the precision of pharmacokinetic parameters and variability estimates were used to discriminate between various models during the model-building process. For hierarchical models, the decrease in OFV of 6.62 units defining an improved fit at a P of <0.01 for one additional parameter was considered to be statistically significant. The uncertainty of final model parameters was determined by nonparametric bootstrap with 1,000 replicates. The 90% confidence intervals (90% CI) for model parameters were constructed based on bootstrap results.
During the structural model-building step, candidate one-, two-, and three-compartment models were tested to describe the pharmacokinetics of caspofungin. […]

[5] = patients with liver failure, maintenance dose of 35 mg, from individual parameters

CC[C@H](C)C[C@H](C)CCCCCCCCC(=O)N[C@H]1C[C@@H](O)[C@@H](NCCN)NC(=O)[C@@H]2[C@@H](O)CCN2C(=O)[C@H]([C@H](O)CCN)NC(=O)[C@H]([C@H](O)[C@@H](O)c2ccc(O)cc2)NC(=O)[C@@H]2C[C@@H](O)CN2C(=O)[C@H]([C@@H](C)O)NC1=O [caspofungin]
target AUC/MIC (C. parapsilosis): 1,185 | target AUC/MIC (C. glabrata): 450 | target AUC/MIC (C. albicans): 865 | CL ([1]; sampling for 26 weeks): 0.579 L/h | CL ([1]; sampling for 28 days): 0.631 L/h | quantifiable concentrations as long as, after administration ([1]; radioactive labeled caspofungin): 22.3 weeks | protein bound [2]: 97% | mean clearance ([3]; ICU patients (Child-Pugh B score)): 0.55 L/h | clearance ([3]; day 3 of the study): 0.57 L/h | clearance ([3]; day 7 of the study): 0.54 L/h | clearance [3]: 0.66 L/h | CL, value provided in the drug label [3]: 0.72 L/h | mean clearance ([3]; patients undergoing CRRT): 0.62 L/h | mean clearance ([3]; patients with invasive aspergillosis, value for a 76-kg patient): 0.403 L/h | decrease in exposure between doses ([4]; CL2 versus CL1): 24% | decrease in exposure between doses ([4]; CL3 versus CL1): 44% | decrease in caspofungin exposure ([4]; associated with increasing clearance with subsequent doses, ICU patients): > 20% | clearance ([4]; estimated during model building process, ICU patients, read-out: mean CL for all three occasions (converted)): 11.8 mL/min | clearance ([4]; typical clearance after first dose, 30 ICU patients, 70 mg i.v. day 1, 50 mg i.v. once daily after, HPLC-UV, final model, read-out: θCL day 1, Estimate (%RSE) (converted)): 9.38 mL/min | clearance ([4]; typical clearance after second dose, 30 ICU patients, i.v., final model, read-out: θCL day 2, Estimate (%RSE) (converted)): 12.3 mL/min | clearance ([4]; typical clearance after third dose, 30 ICU patients, i.v., final model, read-out: θCL day 3, Estimate (%RSE) (converted)): 16.8 mL/min | θQ, Estimate (%RSE) ([4]; intercompartmental clearance, 30 ICU patients, final model): 1.31 (15.7) liter/h | typical AUC0–24 ([4]; typical clearance after first dose (CL1)): 89 mg ⋅ h/liter | typical AUC0–24 ([4]; typical clearance after second dose (CL2)): 68 mg ⋅ h/liter | typical AUC0–24 ([4]; typical clearance after third dose (CL3)): 50 mg ⋅ h/liter | minimal AUC0–24 as % of the 98 mg ⋅ h/liter target ([4]; patients with liver failure, 35 mg maintenance): 23% | maximum AUC0–24 as % of the value required for efficacy ([4]; patients with liver failure, 35 mg maintenance, 98 mg ⋅ h/liter target): 62% | AUC0–24, maximum value [4, 5]: 61 mg ⋅ h/liter | AUC0–24, minimal value [4, 5]: 23 mg ⋅ h/liter | θV1 day 1, Estimate (%RSE) ([4]; volume of distribution of central compartment after first dose, 30 ICU patients, final model): 6.04 (7.0) liter | θV1 day 2, Estimate (%RSE) ([4]; volume of distribution of central compartment after second dose, 30 ICU patients, final model): 7.32 (5.3) liter | θV1 day 3, Estimate (%RSE) ([4]; volume of distribution of central compartment after third dose, 30 ICU patients, final model): 7.70 (5.3) liter | θV2, Estimate (%RSE) ([4]; volume of distribution of peripheral compartment, 30 ICU patients, final model): 5.13 (13.7) liter
